In ChEMBL document CHEMBL3763113, “Discovery of spirocyclic proline tryptophan hydroxylase-1 inhibitors” (Bioorg Med Chem Lett, 2016):
Blank lines part the entries; values can stand above or below the molecule they belong to.

What was measured:
[1] = biological target: T1, Tryptophan 5-hydroxylase 1 (Homo sapiens, UniProt P17752)
T1 sequence (P17752 whole entry): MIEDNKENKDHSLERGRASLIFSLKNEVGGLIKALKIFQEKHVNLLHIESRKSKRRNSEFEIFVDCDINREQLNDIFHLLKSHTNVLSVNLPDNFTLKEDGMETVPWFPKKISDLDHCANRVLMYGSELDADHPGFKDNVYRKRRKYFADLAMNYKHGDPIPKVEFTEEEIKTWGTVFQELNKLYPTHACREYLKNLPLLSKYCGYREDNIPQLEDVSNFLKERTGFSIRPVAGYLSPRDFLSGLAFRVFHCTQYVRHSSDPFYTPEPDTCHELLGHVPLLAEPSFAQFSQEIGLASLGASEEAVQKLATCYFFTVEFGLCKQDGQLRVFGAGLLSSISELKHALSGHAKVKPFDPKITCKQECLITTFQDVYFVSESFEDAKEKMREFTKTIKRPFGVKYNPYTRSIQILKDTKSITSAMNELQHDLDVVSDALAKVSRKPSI
Description: Inhibition of TPH1 (unknown origin)

[2] = test system: Rattus norvegicus; assay: Decrease in 5-HT levels in rat intestinal mucosa at 10 mg/kg, po qd measured after 16 hrs relative to control; format: functional; set-up: scale not given: the % may be the effect or the level left
[3] = Cmax in rat at 25 mg/kg, po; format: ADME, organism-based; set-up: dose 25 mg/kg, route oral; conditions: in vivo
[4] = test system: Rattus norvegicus; assay: AUC(0 to last) in rat assessed as (S)-8-(2-amino-6-((R)-1-(4-chloro-2-(3-methyl-1H-pyrazol-1-yl)phenyl)-2,2,2-trifluoroethoxy)pyrimidin-4-yl)-2,8-diazaspiro[4.5]decane-3-carboxylic acid at 25 mg/kg, po; format: ADME, organism-based; set-up: dose 25 mg/kg, route oral, time 0 - last; conditions: in vivo
[5] = Half life in rat at 1 mg/kg, iv; format: ADME, organism-based; conditions: in vivo
[6] = test system: Rattus norvegicus; assay: Cmax in rat assessed as (S)-8-(2-amino-6-((R)-1-(4-chloro-2-(3-methyl-1H-pyrazol-1-yl)phenyl)-2,2,2-trifluoroethoxy)pyrimidin-4-yl)-2,8-diazaspiro[4.5]decane-3-carboxylic acid at 25 mg/kg, po; format: ADME, organism-based; set-up: dose 25 mg/kg, route oral; conditions: in vivo
[7] = test system: Rattus norvegicus; assay: Decrease in 5-HT levels in rat platelet rich plasma at 30 mg/kg, po bid measured after 16 hrs relative to control; format: functional; set-up: scale not given: the % may be the effect or the level left
[8] = test system: Rattus norvegicus; assay: Decrease in 5-HT levels in rat platelet rich plasma at 10 mg/kg, po qd measured after 16 hrs relative to control; format: functional; set-up: scale not given: the % may be the effect or the level left
[9] = test system: Rattus norvegicus; assay: Decrease in 5-HT levels in rat intestinal mucosa at 30 mg/kg, po bid measured after 16 hrs relative to control; format: functional; set-up: scale not given: the % may be the effect or the level left
[10] = test system: Mus musculus; assay: Decrease in 5-HT levels in mouse at 50 mg/kg, po administered as single dose for 16 hrs; format: functional
[11] = test system: Mus musculus; assay: Decrease in 5-HT levels in mouse at 10 mg/kg, po administered as single dose for 16 hrs; format: functional
[12] = AUC(0 to last) in rat at 25 mg/kg, po; format: ADME, organism-based; set-up: dose 25 mg/kg, time 0 - last, route oral; conditions: in vivo
[13] = test system: Rattus norvegicus; assay: Decrease in 5-HT levels in rat platelet rich plasma at 30 mg/kg, po qd measured after 16 hrs relative to control; format: functional; set-up: scale not given: the % may be the effect or the level left
[14] = test system: Rattus norvegicus; assay: Decrease in 5-HT levels in rat intestinal mucosa at 30 mg/kg, po qd measured after 16 hrs relative to control; format: functional; set-up: scale not given: the % may be the effect or the level left
[15] = test system: Rattus norvegicus; assay: Half life in rat assessed as (S)-8-(2-amino-6-((R)-1-(4-chloro-2-(3-methyl-1H-pyrazol-1-yl)phenyl)-2,2,2-trifluoroethoxy)pyrimidin-4-yl)-2,8-diazaspiro[4.5]decane-3-carboxylic acid at 1 mg/kg, iv; format: ADME, organism-based; conditions: in vivo
[16] = Volume of distribution at steady state in rat at 1 mg/kg, iv; format: ADME, organism-based; conditions: in vivo, read-out: Vdss
[17] = Clearance in rat at 25 mg/kg, po and 1 mg/kg, iv; format: ADME, organism-based; conditions: in vivo

SMILES: Cc1ccn(-c2cc(Cl)ccc2[C@@H](Oc2cnnc(N3CCC4(CC3)CNC(C(=O)O)C4)c2)C(F)(F)F)n1 (stereo partly specified)
IC50 [1]: 5.93 µM

SMILES: Cc1ccn(-c2cc(Cl)ccc2[C@@H](Oc2cncc(N3CCC4(CC3)CNC(C(=O)O)C4)n2)C(F)(F)F)n1 (stereo partly specified)
IC50 [1]: 20 µM

SMILES: CCOC(=O)[C@@H]1CC2(CCN(c3cc(O[C@H](c4ccc(Cl)cc4-n4ccc(C)n4)C(F)(F)F)nc(N)n3)CC2)CN1
Activity [2]: 76%
Cmax [3]: 0.249 µg/mL
AUClast [4]: 2.924 µg·h/mL
half-life [5]: 24 min
Cmax [6]: 2.253 µg/mL
Activity [7]: 72%
Activity [8]: 76%
Activity [9]: 38%
inhibition in vivo at 50 mg/kg [10]: 56%
inhibition in vivo at 10 mg/kg [11]: 32%
AUC(0-t) [12]: 0.14 µg·h/mL
Activity [13]: 71%
Activity [14]: 62%
t1/2 [15]: 271 min
Vd [16]: 3.1 L/kg
clearance [17]: 10.7 L/h/kg

Results, then the molecule that gave them:

IC50 [1]: 0.211 µM
SMILES: Cc1ccn(-c2cc(Cl)ccc2[C@@H](Oc2ccnc(N3CCC4(CC3)CNC(C(=O)O)C4)c2)C(F)(F)F)n1 (stereo partly specified)

IC50 [1]: 2.27 µM
SMILES: Cc1ccn(-c2cc(Cl)ccc2[C@@H](Oc2nc(N)nc(N3CCC4(CC3)CNC(C(=O)O)C4)n2)C(F)(F)F)n1 (stereo partly specified)

IC50 [1]: 3.42 µM
SMILES: Cc1ccn(-c2cc(Cl)ccc2[C@@H](Oc2cnc(N3CCC4(CC3)CNC(C(=O)O)C4)cn2)C(F)(F)F)n1 (stereo partly specified)
